# Data: US8487095B2, “Acid addition salts, hydrates and polymorphs of 5-(2,4-dihydroxy-5-iso-propyl-phenyl)-4-(4-morpholin-4-ylmethyl-phenyl)-isoxazole-3-carboxylic acid ethylamide and formulations comprising these forms” (priority 2007, dated 2013)
# Structures can show the parent of a compound that is named as a salt. Where two headings read alike, the source gives them in different places.
# Legend:
# [1] = Solubility of the free base and its salts (description); format: physicochemical
# [2] = clinical, humans; cited from earlier work
# [3] = cited from earlier work
# [4] = Hygroscopicity by Dynamic Water Sorption (DVS); format: physicochemical; conditions: 25° C.; for found to be hygroscopic: DVS, 'Neither' = not hygroscopic
# Experimental: Hygroscopicity is measured using a Dynamic Water Sorption (DVS) apparatus. Measurements are performed at 25° C. using about 8-10 mg of substance. The r.h. is changed in steps of 10% r.h. as follows: 40-0-95-0-40% r.h. The minimum stage time is 60 min, the maximum 180 min, if the change in mass of 10 min is less than 0.002%/min, the r.h. is changed to the next step.
# [5] = Equilibration in suspension (polymorphism); format: physicochemical; conditions: over a range of applied conditions
# Description: Lack of polymorphism is a beneficial property for a solid form designated to be developed as a medicament.
# Light sensitivity = format: physicochemical; conditions: as solid as well as in solution
# [6] = Stability and crystal formation of aqueous mesylate solutions on storage; format: physicochemical
# Description: The expression “free of any other salts” as used herein means that neither any salts derived from inorganic or organic acids, such as sodium chloride, as isotonic agent nor any buffer salts are present.
# In one embodiment, the formulation consists of the mesylate salt of an isotonic aqueous solution of 5-(2,4-dihydroxy-5-isopropyl-phenyl)-4-(4-morpholin-4-ylmethyl-phenyl)-isoxazole-3-carboxylic acid ethylamide and 5% w/w of glucose or mannitol. […] Furthermore, the pH of such a solution prevents Maillard reactions during autoclavation of the 5% glucose solution which would lead to discoloration at neutral pH.
# [7] = Solubility of the mesylate salt in different aqueous media (Example 7); format: physicochemical
# Experimental: The solubility of the 5-(2,4-dihydroxy-5-isopropyl-phenyl)-4-(4-morpholin-4-ylmethyl-phenyl)-isoxazole-3-carboxylic acid ethylamide (AUY922) mesylate salt in different aqueous media were determined and found to be as follows: […]
# [8] = Stress tests in solution or suspensions, 4 weeks at 50° C. (Example 8); format: physicochemical
# Experimental: The stability of the AUY922 mesylate salt in different aqueous media were determined under stress conditions (4 weeks at 50° C.) and the following appearance/content recovery/sum of by- and degradation products were found: […]
# [9] = pH and autoclavation of the 4.8-5.2 mg/ml aqueous mesylate solution; format: physicochemical
# Experimental: Preferably, the formulation comprises between around 4.8 and 5.2 mg/ml solution, more preferably 5.0 mg/ml solution, of 5-(2,4-dihydroxy-5-isopropyl-phenyl)-4-(4-morpholin-4-ylmethyl-phenyl)-isoxazole-3-carboxylic acid ethylamide mesylate. The pH of such a solution is around 4.2 and therefore at the stability maximum of the mesylate salt. This surprising finding renders the solution particularly suitable for pharmaceutical use. In particular, it allows to use the solution without any other excipients, such as buffers, for stabilizing the drug substance.
# [10] = buffer pH 6.0 (phosphate buffer)
# [11] = buffer pH 6.8 (phosphate buffer)
# [12] = water, read-out: solubility in water
compound,measurement,setting,value
"5-(2,4-dihydroxy-5-isopropyl-phenyl)-4-(4-morpholin-4-ylmethyl-phenyl)-isoxazole-3-carboxylic acid ethylamide hemi fumarate [hemi fumarate salt]",solubility in water,[1]; water,100 to 250 µg/mL
"C=CCNC1=C2C[C@@H](C)C[C@H](OC)[C@H](O)[C@@H](C)/C=C(\C)[C@H](OC(N)=O)[C@@H](OC)/C=C\C=C(/C)C(=O)NC(=CC1=O)C2=O [Example 17-AAG, 17-allylamino-17-demethoxy-geldanamycin]",dose limiting toxicity,[2],hepatic toxicity
same,solubility,[3],poor solubility
"CCNC(=O)c1noc(-c2cc(C(C)C)c(O)cc2O)c1-c1ccc(CN2CCOCC2)cc1 [free base, 5-(2,4-Dihydroxy-5-isopropyl-phenyl)-4-(4-morpholin-4-ylmethyl-phenyl)-isoxazole-3-carboxylic acid ethylamide]",solubility in 0.1 N HCl,[1],1000 to 2500 µg/mL
same,solubility in water,[1]; water,less than 0.1 mg/ml
same,maximum uptake of water,[4]; 80% relative humidity,1.8%
same,found to be hygroscopic,[4],slightly hygroscopic
"CCNC(=O)c1noc(-c2cc(C(C)C)c(O)cc2O)c1-c1ccc(CN2CCOCC2)cc1 [hydrochloride salt, 5-(2,4-Dihydroxy-5-isopropyl-phenyl)-4-(4-morpholin-4-ylmethyl-phenyl)-isoxazole-3-carboxylic acid ethylamide hydrochloric acid salt]",solubility in 0.1 N HCl,[1],less than 1 mg/ml
same,solubility at pH 5,[1]; pH 5,1-2.5 mg/ml
same,solubility in water,[1]; water,2500 to 5000 µg/mL
same,found to be hygroscopic,[4],Neither
same,change of crystalline form by equilibration in suspension,[5],did not change
"CCNC(=O)c1noc(-c2cc(C(C)C)c(O)cc2O)c1-c1ccc(CN2CCOCC2)cc1 [mesylate salt, 5-(2,4-Dihydroxy-5-isopropyl-phenyl)-4-(4-morpholin-4-ylmethyl-phenyl)-isoxazole-3-carboxylic acid ethylamide mesylate]",solubility compared with the free base (and other salts),[1],superior
same,solubility in 0.1 N HCl,[1]; mesylate,10000 to 20000 µg/mL
same,solubility,"[1]; pH 5, aqueous buffer, pH 5, read-out: solubility at pH 5",1000 to 2500 µg/mL
same,solubility,"[1]; water, pH 4, water, water at pH 4, read-out: solubility in water at pH 4",33500 µg/mL
same,light sensitivity,Light sensitivity,light sensitive
same,found to be hygroscopic,[4]; mesylate,Neither
same,crystal formation in solution,"[6]; in the presence of other salts (e.g. sodium chloride, buffer salts)",crystals are formed sooner or later
same,chemical stability in formulation,[6]; isotonic aqueous solution with 5% w/w of glucose or mannitol,chemically stable
same,crystal formation on storage,"[6]; isotonic aqueous solution with 5% w/w of glucose or mannitol, longer storage time, e.g. several months",crystal formation can be avoided
same,solubility,"[7]; 0.9% NaCl solution, saline or isotonic, thermodynamic from solid",12800 µg/mL
same,solubility,"[7]; 5% glucose solution, saline or isotonic, thermodynamic from solid",39000 µg/mL
same,solubility,"[7]; 5% mannitol solution, saline or isotonic, thermodynamic from solid",39000 µg/mL
same,solubility,"[7]; aqueous buffer, thermodynamic from solid, buffer pH 4.0 (acetate buffer)",14600 µg/mL
same,solubility,"[7]; aqueous buffer, thermodynamic from solid, buffer pH 5.0 (acetate buffer)",3200 µg/mL
same,solubility,"[7]; aqueous buffer, thermodynamic from solid, buffer pH 6.0 (phosphate buffer)",600 µg/mL
same,solubility,"[7]; aqueous buffer, thermodynamic from solid, buffer pH 7.0 (phosphate buffer)",700 µg/mL
same,solubility,"[7]; aqueous buffer, thermodynamic from solid, buffer pH 8.0 (borate buffer)",1800 µg/mL
same,solubility,"[7]; pH 3.6, thermodynamic from solid, Water (pH of the saturated solution=3.6)",37500 µg/mL
same,solubility,"[7]; saline or isotonic, thermodynamic from solid, 5% glucose solution pH 4",35600 µg/mL
same,solubility,"[7]; saline or isotonic, thermodynamic from solid, 5% glucose solution pH 7",37500 µg/mL
same,appearance,[8]; 0.9% NaCl,colorless solution
same,sum of by- and degradation products,[8]; 0.9% NaCl,0.34%
same,appearance,[8]; 5% glucose solution,colorless solution
same,sum of by- and degradation products,[8]; 5% glucose solution,0.34%
same,appearance,[8]; Water,colorless solution
same,sum of by- and degradation products,[8]; Water,0.32%
same,appearance,[8]; buffer pH1.0 (HCl),colorless solution
same,sum of by- and degradation products,[8]; buffer pH1.0 (HCl),2.83%
same,appearance,[8]; buffer pH2.0 (citrate buffer),colorless solution
same,sum of by- and degradation products,[8]; buffer pH2.0 (citrate buffer),0.58%
same,appearance,[8]; buffer pH3.0 (citrate buffer),colorless solution
same,sum of by- and degradation products,[8]; buffer pH3.0 (citrate buffer),0.47%
same,appearance,[8]; buffer pH 4.0 (acetate buffer),colorless solution
same,sum of by- and degradation products,[8]; buffer pH 4.0 (acetate buffer),0.36%
same,appearance,[8]; buffer pH 5.0 (acetate buffer),colorless solution
same,sum of by- and degradation products,[8]; buffer pH 5.0 (acetate buffer),0.50%
same,appearance,[8]; [10],colorless suspension
same,sum of by- and degradation products,[8]; [10],0.49%
same,appearance,[8]; [11],colorless suspension
same,sum of by- and degradation products,[8]; [11],0.79%
same,appearance,[8]; buffer pH8.0 (borate buffer),colorless suspension
same,sum of by- and degradation products,[8]; buffer pH8.0 (borate buffer),0.26%
same,pH of stability maximum,[8]; stress conditions,4
same,pH of the solution,"[9]; aqueous solution, around 4.8 to 5.2 mg/ml mesylate",around 4.2
same,stability to autoclavation,"[9]; solution of around 4.8 to 5.2 mg/ml, about 120° C., 20 to 40 minutes, around 2 bar",without causing any color changes or degradation products
"CCNC(=O)c1noc(-c2cc(C(C)C)c(O)cc2O)c1-c1ccc(CN2CCOCC2)cc1.O=P(O)(O)O [phosphate salt, 5-(2,4-dihydroxy-5-isopropyl-phenyl)-4-(4-morpholin-4-ylmethyl-phenyl)-isoxazole-3-carboxylic acid ethylamide phosphate]",solubility,[1]; [12],500 to 1000 µg/mL
"CCNC(=O)c1noc(-c2cc(C(C)C)c(O)cc2O)c1-c1ccc(CN2CCOCC2)cc1.O=C(O)C(O)C(O)C(=O)O [tartrate salt, 5-(2,4-dihydroxy-5-isopropyl-phenyl)-4-(4-morpholin-4-ylmethyl-phenyl)-isoxazole-3-carboxylic acid ethylamide tartrate]",solubility,[1]; [12],> 2000 µg/mL
